The target in assay [1] is T1, Androgen receptor (Homo sapiens, UniProt P10275, T878A). Description: Inhibition of mutant T877A Androgen receptor in human LNCaP cells. The class given is cell-based.
The target in assay [2] is T2, Androgen receptor (Homo sapiens, UniProt P10275).
T2 sequence (P10275 whole entry): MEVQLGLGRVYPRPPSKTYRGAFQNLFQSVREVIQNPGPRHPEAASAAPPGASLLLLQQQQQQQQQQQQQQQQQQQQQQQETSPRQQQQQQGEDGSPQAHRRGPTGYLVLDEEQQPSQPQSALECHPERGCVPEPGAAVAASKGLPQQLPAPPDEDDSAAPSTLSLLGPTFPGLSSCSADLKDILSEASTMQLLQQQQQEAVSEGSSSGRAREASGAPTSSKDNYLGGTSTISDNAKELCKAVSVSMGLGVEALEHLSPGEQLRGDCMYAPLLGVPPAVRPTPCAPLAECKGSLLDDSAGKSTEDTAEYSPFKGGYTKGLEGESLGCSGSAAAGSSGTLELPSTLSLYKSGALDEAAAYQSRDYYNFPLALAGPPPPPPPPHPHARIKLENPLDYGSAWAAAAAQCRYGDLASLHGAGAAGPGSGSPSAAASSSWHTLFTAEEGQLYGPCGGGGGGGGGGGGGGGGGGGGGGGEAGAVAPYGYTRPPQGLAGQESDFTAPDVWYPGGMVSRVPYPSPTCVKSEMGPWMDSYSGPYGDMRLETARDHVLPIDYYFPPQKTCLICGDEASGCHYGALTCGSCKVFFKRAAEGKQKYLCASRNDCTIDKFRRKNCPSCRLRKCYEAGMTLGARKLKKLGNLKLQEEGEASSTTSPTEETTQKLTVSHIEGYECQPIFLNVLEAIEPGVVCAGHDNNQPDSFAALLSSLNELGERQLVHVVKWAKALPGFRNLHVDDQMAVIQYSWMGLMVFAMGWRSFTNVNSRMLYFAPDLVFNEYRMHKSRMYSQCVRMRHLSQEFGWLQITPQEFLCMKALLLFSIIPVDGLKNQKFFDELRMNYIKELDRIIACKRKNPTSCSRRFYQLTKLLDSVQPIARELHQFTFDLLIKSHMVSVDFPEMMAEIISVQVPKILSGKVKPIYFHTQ
Description: Inhibition of androgen receptor in human MDA-453 cells

For assay [3], the target named is T1, Androgen receptor. In words: biochemical.
In assay [4] the target is T1, Androgen receptor. Description: Inhibition of mutant T877A Androgen receptor in human LNCaP cells; Ag means agonist. It counts as functional, cell-based.
In assay [5] the target is T2, Androgen receptor. In words: Inhibition of androgen dependent human prostate cancer cell […] proliferation; Ag means agonist. It counts as functional, cell-based. Particulars: cancer cell lines.
Assay [6] concerns the target T2, Androgen receptor. In words: Binding affinity for androgen receptor in human MDA-453 cells.

We go through 13 compounds from ChEMBL document CHEMBL1142826, “Structure based approach to the design of bicyclic-1H-isoindole-1,3(2H)-dione based androgen receptor antagonists” (Bioorg Med Chem Lett, 2005).

T1 sequence (P10275 whole entry T878A): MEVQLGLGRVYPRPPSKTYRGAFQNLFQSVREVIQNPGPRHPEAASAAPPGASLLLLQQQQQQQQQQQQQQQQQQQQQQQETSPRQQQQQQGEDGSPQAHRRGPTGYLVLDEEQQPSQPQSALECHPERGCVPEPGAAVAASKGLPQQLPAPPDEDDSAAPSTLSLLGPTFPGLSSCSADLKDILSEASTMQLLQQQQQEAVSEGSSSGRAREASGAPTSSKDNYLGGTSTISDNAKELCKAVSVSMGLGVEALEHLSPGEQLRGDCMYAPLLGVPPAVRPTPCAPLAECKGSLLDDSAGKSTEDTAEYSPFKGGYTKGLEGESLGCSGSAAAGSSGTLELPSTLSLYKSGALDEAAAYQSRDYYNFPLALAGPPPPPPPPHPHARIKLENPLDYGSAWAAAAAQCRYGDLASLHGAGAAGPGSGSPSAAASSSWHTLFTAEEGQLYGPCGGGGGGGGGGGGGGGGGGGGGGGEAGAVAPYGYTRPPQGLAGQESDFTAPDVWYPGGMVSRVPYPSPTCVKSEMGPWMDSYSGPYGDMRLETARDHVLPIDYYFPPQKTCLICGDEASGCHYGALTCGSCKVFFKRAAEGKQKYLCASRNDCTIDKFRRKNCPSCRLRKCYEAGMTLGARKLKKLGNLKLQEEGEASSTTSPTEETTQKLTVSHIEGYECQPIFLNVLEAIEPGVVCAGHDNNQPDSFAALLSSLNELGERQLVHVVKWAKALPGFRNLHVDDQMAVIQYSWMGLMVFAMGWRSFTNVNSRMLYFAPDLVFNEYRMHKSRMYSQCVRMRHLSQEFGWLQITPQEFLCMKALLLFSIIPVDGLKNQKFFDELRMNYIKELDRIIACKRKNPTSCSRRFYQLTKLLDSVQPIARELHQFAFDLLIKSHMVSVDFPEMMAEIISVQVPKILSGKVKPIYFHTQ

Take `O=C1[C@@H]2C3C=CC([C@H]4C[C@@H]34)[C@@H]2C(=O)N1c1cccc(C(F)(F)F)c1`: the half-inhibitory concentration (IC50) at Androgen receptor [1] worked out at 30 nM; against Androgen receptor [2] it was 1700 nM. For the same compound, on Androgen receptor [3], the Ki was found to be 9 nM.

Take `O=C1[C@@H]2C3C=CC(CC3)[C@@H]2C(=O)N1c1ccc(Cl)c(Cl)c1`: the concentration for half-maximal inhibition (IC50) result on Androgen receptor [4] was “Agonist”; at Androgen receptor [5], “Agonist”; on Androgen receptor [2] it was 150 nM. Further, the figures for the inhibitory constant (Ki) on Androgen receptor [6] and at Androgen receptor [3] were 83 nM and 28 nM, respectively.

Consider `O=C1[C@@H]2C3C=CC([C@H]4C[C@@H]34)[C@@H]2C(=O)N1c1ccc([N+](=O)[O-])c2ccccc12`, for which the IC50 result is “Agonist” on Androgen receptor [4], “Agonist” on Androgen receptor [5] and 786 nM at Androgen receptor [2]. Also, the inhibition constant (Ki) at Androgen receptor [6] was found to be 3 nM.

`Cc1cc(N2C(=O)[C@@H]3C4C=CC([C@H](O)[C@@H]4O)[C@@H]3C2=O)ccc1Br`: the concentration for half-maximal inhibition (IC50) was 59 nM against Androgen receptor [1], “Agonist” on Androgen receptor [5] and 5240 nM on Androgen receptor [2]. Besides, the inhibition constant Ki on Androgen receptor [6] was 432 nM; at Androgen receptor [3], 33 nM.

Turning to `O=C1[C@@H]2C3C=CC(CC3)[C@@H]2C(=O)N1c1ccc([N+](=O)[O-])c2ccccc12`, the IC50 entry is “Agonist” at Androgen receptor [5] and 224 nM at Androgen receptor [2]. In addition, at Androgen receptor [3], the affinity, expressed as Ki, was 0.5 nM.

Consider `Cc1cc(N2C(=O)[C@@H]3C4C=CC(CC4)[C@@H]3C2=O)ccc1Br`, for which the 50% inhibitory concentration (IC50) result is “Agonist” on Androgen receptor [4], “Agonist” at Androgen receptor [5] and 68 nM against Androgen receptor [2]. The Ki on Androgen receptor [3] is 0.01 nM.

Regarding `CC(C)(O)C(=O)Nc1ccc([N+](=O)[O-])c(C(F)(F)F)c1` [HYDROXYFLUTAMIDE], the 50% inhibitory concentration (IC50) entry on Androgen receptor [4] and at Androgen receptor [5] was “Agonist” throughout.

Turning to `O=C1[C@@H]2C3C=CC(CC3)[C@@H]2C(=O)N1c1cccc(C(F)(F)F)c1`, the results for the half-inhibitory concentration (IC50) against Androgen receptor [1] and against Androgen receptor [2] were 66 nM and 196 nM, respectively. Moreover, at Androgen receptor [3], the affinity corresponds to a Ki of 19 nM.

For the compound `O=C1[C@@H]2C3C=CC(C3)[C@@H]2C(=O)N1c1ccc(Cl)c(Cl)c1`, the IC50 turned out to be 41 nM at Androgen receptor [1] and 307 nM on Androgen receptor [2]. For the same compound, the inhibitory constant (Ki) on Androgen receptor [6] is 158 nM; at Androgen receptor [3], 6 nM.

On to `CN1C(=O)C2C=CC1[C@@H]1C(=O)N(c3ccc([N+](=O)[O-])c4ccccc34)C(=O)[C@H]21` (stereo not given in full), for which the IC50 at Androgen receptor [1] came to 631 nM; against Androgen receptor [2], 4030 nM. Also, the Ki on Androgen receptor [6] was over 5000 nM; on Androgen receptor [3], 115 nM.

Take `O=C1[C@@H]2C3CCCC(CC3)[C@@H]2C(=O)N1c1cccc(C(F)(F)F)c1`: the IC50 against Androgen receptor [1] is 23 nM; against Androgen receptor [2] it was 658 nM. In addition, the Ki at Androgen receptor [3] worked out at 20 nM.

As to `O=C1[C@@H]2C3CCC(C3)[C@@H]2C(=O)N1c1ccc([N+](=O)[O-])c(C(F)(F)F)c1`, the 50% inhibitory concentration (IC50) result at Androgen receptor [4] and at Androgen receptor [5] was “Agonist” throughout.

For the compound `O=C1[C@@H]2C3C=CC(CCC3)[C@@H]2C(=O)N1c1ccc([N+](=O)[O-])c2ccccc12`, the half-maximal inhibitory concentration (IC50) entry on Androgen receptor [4] was “Agonist”; at Androgen receptor [5] it was “Agonist”; against Androgen receptor [2] it was 49 nM.

Usually IC50 stands for the point on the concentration scale where inhibition reaches its midpoint. Read a low IC50 as higher potency. The term Ki denotes the dissociation constant of the complex between target and ligand, obtained from inhibition or displacement.
